Assay results published in patent US10364238B2, “N-((het) arylmethyl)-heteroaryl-carboxamides compounds as plasma kallikrein inhibitors” (KALVISTA PHARMACEUTICALS LIMITED, priority 2014, dated 2019).

Assays:
[1] = in vivo; cited from earlier work
diabetic rats = settings: cited from earlier work
Human plasma kallikrein = Human plasma kallikrein (Homo sapiens (Human), UniProt P03952); test: Determination of the IC50 for plasma kallikrein; format: biochemical; settings: 25° C., fluorogenic substrate H-DPro-Phe-Arg-AFC; read-out: IC50 (human PKaI)
Sequence of Human plasma kallikrein (P03952 391-638): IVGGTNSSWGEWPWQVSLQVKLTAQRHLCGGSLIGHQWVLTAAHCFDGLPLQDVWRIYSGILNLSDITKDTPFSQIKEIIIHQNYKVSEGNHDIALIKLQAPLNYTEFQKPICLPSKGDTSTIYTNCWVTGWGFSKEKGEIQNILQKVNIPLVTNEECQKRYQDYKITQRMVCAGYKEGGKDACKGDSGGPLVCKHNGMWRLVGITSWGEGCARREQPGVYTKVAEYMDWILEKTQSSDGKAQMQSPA
Sequence of Human plasma kallikrein (P03952 20-390 partner): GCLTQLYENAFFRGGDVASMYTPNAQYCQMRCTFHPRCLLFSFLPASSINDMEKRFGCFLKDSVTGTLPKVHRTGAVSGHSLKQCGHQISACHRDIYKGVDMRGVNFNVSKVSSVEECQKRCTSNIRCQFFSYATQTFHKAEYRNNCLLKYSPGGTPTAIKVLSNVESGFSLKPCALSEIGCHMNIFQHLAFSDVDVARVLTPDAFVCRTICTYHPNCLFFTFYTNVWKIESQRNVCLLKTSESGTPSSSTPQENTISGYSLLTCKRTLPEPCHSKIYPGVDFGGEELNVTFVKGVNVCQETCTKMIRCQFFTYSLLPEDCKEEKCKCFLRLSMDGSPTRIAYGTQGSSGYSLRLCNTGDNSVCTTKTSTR
Procedure: Determination of the IC50 for Plasma Kallikrein
(§1) Human plasma kallikrein (Protogen) was incubated at 25° C. with the fluorogenic substrate H-DPro-Phe-Arg-AFC and various concentrations of the test compound. Residual enzyme activity (initial rate of reaction) was determined by measuring the change in […] at 410 nm and the IC50 value for the test compound was determined.

Human FXIa = Human FXIa (Homo sapiens (Human), UniProt P03951); test: Determination of the % inhibition for FXIa; format: biochemical; settings: 40 μM test compound, 25° C., substrate Z-Gly-Pro-Arg-AFC
Sequence of Human FXIa (P03951 388-625): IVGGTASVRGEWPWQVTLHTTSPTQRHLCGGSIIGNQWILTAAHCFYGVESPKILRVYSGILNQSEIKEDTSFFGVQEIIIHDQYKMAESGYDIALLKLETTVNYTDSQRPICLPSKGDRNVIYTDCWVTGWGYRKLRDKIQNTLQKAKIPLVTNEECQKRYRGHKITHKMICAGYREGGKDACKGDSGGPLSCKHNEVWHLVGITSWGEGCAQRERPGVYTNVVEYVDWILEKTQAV
Sequence of Human FXIa (P03951 19-387 partner): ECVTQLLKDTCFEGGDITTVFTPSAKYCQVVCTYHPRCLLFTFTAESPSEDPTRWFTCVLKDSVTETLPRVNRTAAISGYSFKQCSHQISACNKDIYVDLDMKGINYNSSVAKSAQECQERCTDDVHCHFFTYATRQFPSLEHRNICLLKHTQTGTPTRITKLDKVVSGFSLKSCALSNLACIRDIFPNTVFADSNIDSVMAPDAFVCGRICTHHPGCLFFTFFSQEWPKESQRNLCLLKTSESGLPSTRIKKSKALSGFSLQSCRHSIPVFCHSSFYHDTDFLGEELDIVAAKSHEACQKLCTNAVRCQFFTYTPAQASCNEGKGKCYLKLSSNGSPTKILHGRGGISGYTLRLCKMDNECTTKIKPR
Procedure: Determination of the % Inhibition for FXIa
Human FXIa (Enzyme Research Laboratories) was incubated at 25° C. with the fluorogenic substrate Z-Gly-Pro-Arg-AFC and 40 μM of the test compound. Residual enzyme activity (initial rate of reaction) was determined by measuring the change in […].

Human KLK1 = Human KLK1 (Homo sapiens (Human), UniProt P06870); test: Determination of the IC50 for KLK1; format: biochemical; settings: 25° C., fluorogenic substrate H-DVal-Leu-Arg-AFC
Sequence of Human KLK1 (P06870 25-262): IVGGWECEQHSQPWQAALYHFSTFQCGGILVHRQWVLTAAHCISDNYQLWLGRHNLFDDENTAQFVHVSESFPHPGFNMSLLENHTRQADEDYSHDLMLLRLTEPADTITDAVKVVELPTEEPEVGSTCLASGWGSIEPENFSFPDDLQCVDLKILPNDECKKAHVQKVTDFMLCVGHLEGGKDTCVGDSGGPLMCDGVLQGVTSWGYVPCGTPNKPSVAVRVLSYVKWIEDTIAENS
Procedure: Determination of the IC50 for KLK1
as §1, with “KLK1 (Callbiochem)” for “plasma kallikrein (Protogen)”, “H-DVal-Leu-Arg-AFC” for “H-DPro-Phe-Arg-AFC”

[2] = Pharmacokinetics following a single oral dose in rats; format: in vivo; settings: rat, nominal 10 mg/kg, male Sprague-Dawley rats, plasma
Procedure: Pharmacokinetic studies of the compounds in Table 15 were performed to assess the pharmacokinetics following a single oral dose in male Sprague-Dawley rats. Two rats were given a single po dose of 5 mL/kg of a nominal 2 mg/mL (10 mg/kg) composition of test compound in vehicle. Following dosing, blood samples were collected over a period of 24 hours. Sample times were 5, 15 and 30 minutes then 1, 2, 4, 6, 8 and 12 hours. Following collection, blood samples were centrifuged and the plasma fraction analysed for concentration of test compound by LCMS.

| SMILES | oral availability [1] | effect on retinal vascular permeability and retinal blood flow abnormalities (diabetic rats) | IC50 (Human plasma kallikrein) [nM] | inhibition at 40 µM (Human FXIa) [%] | IC50 (Human KLK1) [nM] | Cmax [2] [ng/mL] | Tmax [2] [min] |
| --- | --- | --- | --- | --- | --- | --- | --- |
| N=C(N)c1ccc(CNC(=O)c2cnn(Cc3ccccc3)c2)cc1 [ASP-440] | poor oral availability | ameliorated both retinal vascular permeability and retinal blood flow abnormalities | – | – | – | – | – |
| COc1cccc(CNC(=O)c2cn(Cc3ccc(Cn4ccccc4=O)cc3)nc2N)c1F [Example 2, 3-Amino-1-[4-(2-oxo-2H-pyridin-1-ylmethyl)-benzyl]-1H-pyrazole-4-carboxylic acid 2-fluoro-3-methoxy-benzylamide] | – | – | 8.7 | 8 | > 10000 | 351 | 60 |
| COCc1nn(Cc2ccc(Cn3ccccc3=O)cc2)cc1C(=O)NCc1nccc(OC)c1F [Example 41, N-[(3-fluoro-4-methoxypyridin-2-yl)methyl]-3-(methoxymethyl)-1-({4-[(2-oxopyridin-1-yl)methyl]phenyl}methyl)pyrazole-4-carboxamide] | – | – | – | 0 | > 40000 | 1530 | 180 |
| O=C(NCc1c(F)cccc1C(F)(F)F)c1cn(Cc2ccc(Cn3ccccc3=O)cc2)nc1C(F)(F)F [Example 51, N-{[2-fluoro-6-(trifluoromethyl)phenyl]methyl}-1-({4-[(2-oxopyridin-1-yl)methyl]phenyl}methyl)-3-(trifluoromethyl)pyrazole-4-carboxamide] | – | – | 48.9 | – | > 40000 | 101 | 15 |
| COCc1nn(Cc2ccc(Cn3ccccc3=O)cc2)cc1C(=O)NCc1cccc(OC)c1F [Example 53, N-[(2-fluoro-3-methoxyphenyl)methyl]-3-(methoxymethyl)-1-({4-[(2-oxopyridin-1-yl)methyl]phenyl}methyl)pyrazole-4-carboxamide] | – | – | 20.2 | – | > 10000 | 1030 | 15 |
| COCc1nn(Cc2ccc(Cn3ccccc3=O)cc2)cc1C(=O)NCc1c(F)ccc(OC)c1F [Example 66, N-[(2,6-difluoro-3-methoxyphenyl)methyl]-3-(methoxymethyl)-1-({4-[(2-oxopyridin-1-yl)methyl]phenyl}methyl)pyrazole-4-carboxamide] | – | – | 4.6 | 4 | > 10000 | 2890 | 60 |
| COCc1nn(Cc2ccc(Cn3ccccc3=O)cc2)cc1C(=O)NCc1c(C#N)ccc(OC)c1F [Example 77, N-[(6-cyano-2-fluoro-3-methoxyphenyl)methyl]-3-(methoxymethyl)-1-({4-[(2-oxopyridin-1-yl)methyl]phenyl}methyl)pyrazole-4-carboxamide] | – | – | 0.6 | 28 | – | 397 | 30 |
| COc1cccc(CNC(=O)c2cn(Cc3ccc(Cn4ccccc4=O)cc3)c(C(F)(F)F)n2)c1F [Example 124, N-[(2-fluoro-3-methoxyphenyl)methyl]-1-({4-[(2-oxopyrldin-1-yl)methyl]phenyl}methyl)-2-(trifluoromethyl)imidazole-4-carboxamide] | – | – | 191 | 0 | > 10000 | – | – |
| COc1cccc(CNC(=O)c2cn(Cc3ccc(N4CCCC4)nc3)nc2C(F)(F)F)c1F [Example 126, N-[(2-fluoro-3-methoxyphenyl)methyl]-1-{[6-(pyrrolidin-1-yl)pyridin-3-yl]methyl}-3-(trifluoromethyl)pyrazole-4-carboxamide] | – | – | 742 | 10 | > 10000 | – | – |
| Nc1nn(Cc2ccc(Cn3ccccc3=O)cc2)cc1C(=O)NCc1cccc(O)c1F [Example 130, 3-amino-N-[(2-fluoro-3-hydroxyphenyl)methyl]-1-({4-[(2-oxopyridin-1-yl)methyl]phenyl}methyl)pyrazole-4-carboxamide] | – | – | 174 | 0 | > 40000 | – | – |
| COCc1nn(Cc2ccc(Cn3ccccc3=O)cc2)cc1C(=O)NCc1ccccc1C(=O)OC [Example 131, methyl 2-({[3-(methoxymethyl)-1-({4-[(2-oxopyridin-1-yl)methyl]phenyl}methyl)pyrazol-4-yl]formamido}methyl)benzoate] | – | – | 1510 | 0 | > 10000 | – | – |
| CCc1cccc(CNC(=O)c2cn(Cc3ccc(Cn4ccccc4=O)cc3)nc2COC)c1F [Example 132, N-[(3-ethyl-2-fluorophenyl)methyl]-3-(methoxymethyl)-1-({4-[(2-oxopyridin-1-yl)methyl]phenyl}methyl)pyrazole-4-carboxamide] | – | – | 135 | 0 | > 40000 | – | – |
| COCc1nn(Cc2ccc(Cn3ccccc3=O)cc2)cc1C(=O)NCc1cccc(OC)c1 [Example 133, 3-(methoxymethyl)-N-[(3-methoxyphenyl)methyl]-1-({4-[(2-oxopyridin-1-yl)methyl]phenyl}methyl)pyrazole-4-carboxamide] | – | – | 90.2 | 1 | > 10000 | – | – |
| CN1CC(CNC(=O)c2cn(Cc3ccc(Cn4ccccc4=O)cc3)nc2N)Oc2cc(Cl)ccc21 (stereo not shown) [Example 139, 3-amino-N-[(7-chloro-4-methyl-2,3-dihydro-1,4-benzoxazin-2-yl)methyl]-1-({4-[(2-oxopyridin-1-yl)methyl]phenyl}methyl)pyrazole-4-carboxamide] | – | – | 64.7 | 33 | > 40000 | – | – |
| Nc1nn(Cc2ccc(Cn3ccccc3=O)cc2)cc1C(=O)NCC1CNc2ccc(Cl)cc2O1 (stereo not shown) [Example 140, 3-amino-N-[(7-chloro-3,4-dihydro-2H-1,4-benzoxazin-2-yl)methyl]-1-({4-[(2-oxopyridin-1-yl)methyl]phenyl}methyl)pyrazole-4-carboxamide] | – | – | 10.6 | 9 | > 40000 | – | – |
